Reference: publication PMC4923880, “Urbilaterian origin of paralogous GnRH and corazonin neuropeptide signalling pathways” (Scientific Reports, 2016)
Square brackets hold non-standard residues; d marks the D form. Ends that are not written are not given here. Peptide text beside a SMILES is read from it. pGlu = O=C1CC[C@@H](C(=O)O)N1

What was measured:
ArGnRHR = ArGnRHR (Asterias rubens, UniProt A0A1B0YGS0); experiment: Bioluminescence (Ca2+) receptor activation assay, ArGnRHR in CHO-K1 cells with aequorin and Gα16; type: cell-based; conditions: for activation of ArGnRHR (bioluminescence response, in words) / activation of ArGnRHR by other GnRH/CRZ-type or starfish neuropeptides (in words): CHO-K1/aequorin/Gα16 cells; for activation of ArGnRHR (bioluminescence response, in words): concentrations 10^−4 M to 10^−14 M, peptide 2 over the same concentration range as peptide 1; for activation of ArGnRHR by other GnRH/CRZ-type or starfish neuropeptides (in words): 10 μM, Supplementary Figure S8
Sequence of ArGnRHR (A0A1B0YGS0 entry or part of it): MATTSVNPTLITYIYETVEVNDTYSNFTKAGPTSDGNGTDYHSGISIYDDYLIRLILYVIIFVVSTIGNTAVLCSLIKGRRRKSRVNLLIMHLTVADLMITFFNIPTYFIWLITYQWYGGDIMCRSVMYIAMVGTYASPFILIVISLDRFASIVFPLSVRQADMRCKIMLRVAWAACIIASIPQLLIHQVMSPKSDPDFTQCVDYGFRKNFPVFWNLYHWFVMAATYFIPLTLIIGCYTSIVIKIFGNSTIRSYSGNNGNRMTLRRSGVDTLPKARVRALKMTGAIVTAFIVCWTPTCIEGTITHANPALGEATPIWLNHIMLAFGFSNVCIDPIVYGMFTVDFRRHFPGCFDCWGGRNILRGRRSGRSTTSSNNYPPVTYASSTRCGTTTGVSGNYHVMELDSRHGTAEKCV
Text: (§1) ArGnRHR and ArCRZR were cloned as described previously[23] and the positions of the primers used are indicated in Supplementary Figures S1 and S2. Next, the ORF of ArGnRHR was amplified using the oligos 5′-aagcttCACCATGGCGACTACATC-3′ and 5′-ctcgagTTATACACATTTCTCAG-3′ and subcloned into the eukaryotic expression vector pcDNA 3.1+ (Invitrogen) that was cut with HindIII and XhoI; The ORF of ArCRZR was amplified using the oligos 5′- gatatcCACCATGAGTGTTCAAT-3′ and 5′-tctagaTCAGGTTGTTGTTGTGA-3′ and subcloned into pcDNA 3.1+ that was cut with EcoRV and XbaI. A partial Kozak translation initiation sequence (CACC) was also introduced in the upstream primer. Chinese hamster ovary (CHO)-K1 cells stably overexpressing the human Gα16 protein and mitochondrial targeted apo-aequorin were used as a heterologous expression system to functionally characterize the receptors. Cells were cultured, transfected and a bioluminescence assay performed as described previously. The A. rubens neuropeptides pQIHYKNPGWGPG-NH2 and HNTFTMGGQNRWKAG-NH2 were custom synthesized by PPR Ltd (Fareham, UK) and were tested as candidate ligands for ArGnRHR and ArCRZR at concentrations ranging from 10^−4 M to 10^−14 M. Ca^2+ responses were normalized to the total Ca^2+ response monitored after addition of Triton X-100 (0.1%). Dose–response data were determined as a % of the highest response (100% activation). EC50 values were calculated from dose–response curves based on at least three independent transfections (Prism 6.0). Other GnRH/CRZ-type neuropeptides (Drosophila AKH and Drosophila AKH) and other starfish neuropeptides (NGFFYamide, SALMFamide-1 and SALMFamide-2[16][24]) were also tested (at 10 μM) to assess the specificity of receptor activation.

ArCRZR = ArCRZR (Asterias rubens, UniProt A0A1B0YGT7); experiment: Bioluminescence (Ca2+) receptor activation assay, ArCRZR in CHO-K1 cells with aequorin and Gα16; type: cell-based; conditions: for activation of ArCRZR by other GnRH/CRZ-type or starfish neuropeptides (in words): 10 μM, Supplementary Figure S8
Sequence of ArCRZR (A0A1B0YGT7 entry or part of it): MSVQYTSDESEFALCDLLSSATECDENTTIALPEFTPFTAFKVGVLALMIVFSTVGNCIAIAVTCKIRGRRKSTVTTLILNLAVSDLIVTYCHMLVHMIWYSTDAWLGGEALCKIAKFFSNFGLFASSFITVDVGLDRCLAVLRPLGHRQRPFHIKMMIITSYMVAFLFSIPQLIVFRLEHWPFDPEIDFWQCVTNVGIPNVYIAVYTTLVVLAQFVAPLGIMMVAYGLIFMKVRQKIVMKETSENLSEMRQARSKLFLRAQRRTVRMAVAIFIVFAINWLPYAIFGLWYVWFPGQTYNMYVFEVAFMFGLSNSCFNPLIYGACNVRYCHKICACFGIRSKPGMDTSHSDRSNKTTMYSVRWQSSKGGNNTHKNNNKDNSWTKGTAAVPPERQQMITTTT
Text: as §1

[1] = test system: cells transfected with an empty vector; experiment: Bioluminescence assay, cells transfected with an empty vector (control); type: cell-based, Chinese hamster; conditions: data not shown
Text: as §1, with “Chinese hamster ovary (CHO)-K1 cells stably overexpressing the human Gα16 protein and mitochondrial targeted apo-aequorin were used as a heterologous expression system to functionally characterize the receptors. Cells were cultured, transfected and a bioluminescence assay performed as described previously.” left out, “Other GnRH/CRZ-type neuropeptides (Drosophila AKH and Drosophila AKH) and other starfish neuropeptides (NGFFYamide, SALMFamide-1 and SALMFamide-2[16][24]) were also tested (at 10 μM) to assess the specificity of receptor activation.” left out

CRZ-type receptor = conditions: one of two CRZ-type receptors; ref [14]; cited from earlier work
Text: (§2) It is not known, however, if this predicted mature peptide actually exists in B. floridae. […] Thus, it remains to be established whether or not distinct GnRH-type and CRZ-type signalling pa ...

GnRH-type receptors = conditions: two GnRH-type receptors; ref [14]; cited from earlier work
Text: as §2

For `CC[C@H](C)[C@H](NC(=O)[C@@H]1CCC(=O)N1)C(=O)N[C@@H](Cc1c[nH]cn1)C(=O)N[C@@H](Cc1ccc(O)cc1)C(=O)N[C@@H](CCCCN)C(=O)N[C@@H](CC(N)=O)C(=O)N1CCC[C@H]1C(=O)NCC(=O)N[C@@H](Cc1c[nH]c2ccccc12)C(=O)NCC(=O)N1CCC[C@H]1C(=O)NCC(N)=O` [peptide 1] ([pGlu]IHYKNPGWGPG-NH2), which EC50 (ArGnRHR) is on record?
The EC50 was 0.603 nM.

What about the “activation of ArGnRHR (bioluminescence response, in words)” value (ArGnRHR) of the same compound?
Its value is “dose-dependent activation”.

What about the “activation of ArGnRHR (bioluminescence response, in words)” value (ArGnRHR; listed as Peptide 1) of the same compound?
The value was “dose-dependent stimulation of a bioluminescence response”.

What about the “activation of ArGnRHR (bioluminescence response, in words)” value (ArGnRHR; listed as pQIHYKNPGWGPG-NH2) of the same compound?
Its value is “specifically activates an A. rubens GnRH-type receptor”.

What about the “activation of ArCRZR (bioluminescence response, in words)” value (ArCRZR; CHO-K1/aequorin/Gα16 cells, concentrations 10^−4 M to 10^−14 M, peptide 1 over a similar concentration range as peptide 2) of the same compound?
Its value is “no effect”.

And the “response of cells transfected with an empty vector (in words)” value [1]?
Its value is “Neither peptide 1 nor peptide 2 elicited any response”.

With `CSCC[C@H](NC(=O)[C@@H](NC(=O)[C@H](Cc1ccccc1)NC(=O)[C@@H](NC(=O)[C@H](CC(N)=O)NC(=O)[C@@H](N)Cc1c[nH]cn1)[C@@H](C)O)[C@@H](C)O)C(=O)NCC(=O)NCC(=O)N[C@@H](CCC(N)=O)C(=O)N[C@@H](CC(N)=O)C(=O)N[C@@H](CCCNC(=N)N)C(=O)N[C@@H](Cc1c[nH]c2ccccc12)C(=O)N[C@@H](CCCCN)C(=O)N[C@@H](C)C(=O)NCC(N)=O` [peptide 2] (H-HNTFTMGGQNRWKAG-NH2) as the compound, how does the EC50 (ArCRZR) read?
The EC50 was 115 nM.

Which results are given for “CRZ: other GnRH/CRZ-type peptide (Drosophila corazonin) (QTFQYSRGWTN; ends and bridges not checked; UniProt Q26377 20-30, looked up)”?
activation of ArGnRHR by other GnRH/CRZ-type or starfish neuropeptides (in words) (ArGnRHR): Neither receptor was activated; activation of ArCRZR by other GnRH/CRZ-type or starfish neuropeptides (in words) (ArCRZR; CHO-K1/aequorin/Gα16 cells): Neither receptor was activated

Which “activation of ArGnRHR by other GnRH/CRZ-type or starfish neuropeptides (in words)” value (ArGnRHR) does the source give for “Drosophila AKH: other GnRH/CRZ-type peptide (Drosophila adipokinetic hormone) (QLTFSPDW; ends and bridges not checked; UniProt P61855 23-30, looked up)” here?
The value was “Neither receptor was activated”.

What about the “activation of ArCRZR by other GnRH/CRZ-type or starfish neuropeptides (in words)” value (ArCRZR; CHO-K1/aequorin/Gα16 cells) of the same compound?
The value was “Neither receptor was activated”.

With NGFFYamide as the compound, how does the “activation of ArGnRHR by other GnRH/CRZ-type or starfish neuropeptides (in words)” value (ArGnRHR) read?
The value was “Neither receptor was activated”.

And the “activation of ArCRZR by other GnRH/CRZ-type or starfish neuropeptides (in words)” value (ArCRZR; CHO-K1/aequorin/Gα16 cells)?
Its value is “Neither receptor was activated”.

For “pQILCARAFTYTHTW-NH2 [candidate neuropeptide in the cephalochordate Branchiostoma floridae]”, which “activation of B. floridae CRZ-type receptors (in words)” value (CRZ-type receptor) is on record?
The value was “activates one of two CRZ-type receptors”.

And the “activation of B. floridae GnRH-type receptors (in words)” value (GnRH-type receptors)?
The value was “neither of two GnRH-type receptors”.
